In US20110160440A1, “Cab Molecules” (GENENCOR INTERNATIONAL, INC., priority 2003, published 2011):

Key:
[1] = system: LS174T human colorectal tumor; experiment: Anti-tumor activity of CAB1.2 plus C-Mel in LS174T human colorectal model in SCID mice; type: in vivo, CB17-SCID mice
From the text: (§1) Female CB17-SCID mice (8-10 weeks, Taconic Labs) were challenged subcutaneously (SC) with 2×10^6 LS174T cells suspended in serum free DMEM in a volume of 100 microliters (Medimmune ACUC protocol # ACF 037). When mean tumor volumes were approximately 100-150 mm^3, animals were randomly distributed into treatment groups. Animals without detectable tumors or excessively large tumors (volume >300 mm^3) were excluded.
Tumor-bearing animals received CAB1.2 in PBS intravenously (IV) at doses of 1 or 2.5 mg/kg in an injection volume of 100 microliters in PBS. C-Mel stored at −70° C. as a 100 mg/ml frozen solution in DMSO) was formulated fresh (15 mg/ml, in a 5:4 ratio of 0.1M Na bicarbonate:PBS) and administered at a dose of 150 mg/kg on an average weight basis, IV bolus, via the tail vein in an injection volume of 200 microliters to all treatment groups receiving prodrug. Melphalan was formulated fresh (2 mg/ml in 20% DMSO/PBS) and administered intraperitoneally in an injection volume of 100 microliters. Briefly, animals administered CAB1.2 at 2.5 mg/kg were administered C-Mel 18 or 36 hours after CAB1.2 treatment. […]
(§2) Animals were monitored daily for general appearance, animal weights taken once weekly and tumor measurements taken twice weekly. Data was collected and mean tumor volumes for all treatment groups determined±SEM, and plotted for analysis (days post tumor challenge vs tumor volume).

[2] = Treatment-related toxicity (weight loss, animal deaths) in LS174T SCID mouse study; type: in vivo, CB17-SCID mice; details: for weight loss: melphalan 10 mg/kg
From the text: as §1
Tumor-bearing animals received CAB1.2 in PBS intravenously (IV) at doses of 1 or 2.5 mg/kg in an injection volume of 100 microliters in PBS. C-Mel stored at −70° C. as a 100 mg/ml frozen solution in DMSO) was formulated fresh (15 mg/ml, in a 5:4 ratio of 0.1M Na bicarbonate:PBS) and administered at a dose of 150 mg/kg on an average weight basis, IV bolus, via the tail vein in an injection volume of 200 microliters to all treatment groups receiving prodrug. Melphalan was formulated fresh (2 mg/ml in 20% DMSO/PBS) and administered intraperitoneally in an injection volume of 100 microliters. Briefly, animals administered CAB1.2 at 2.5 mg/kg were administered C-Mel 18 or 36 hours after CAB1.2 treatment. Animals administered CAB1.2 at 1 mg/kg were administered C-Mel 24 hours after CAB1.2 treatment. Control groups were as follows: untreated, 2.5 mg/kg CAB1.2 alone, 10 mg/kg melphalan, C-Mel alone, 2.5 mg/kg P97ADEPT followed by C-Mel 18 hours later, 1.5 mg/kg Beta-lactamase (BLA, 1.5 mg/kg, which was equimolar to the 2.5 mg/kg CAB1.2 BLA concentrations used), followed by C-Mel 18 hours later. Treatments were repeated once weekly for 3 cycles. Tumor measurements (in millimeters) were taken twice weekly; the investigator measuring the tumors was blinded to the treatment groups.
as §2
The average weights of individual treatment groups taken on day 9, when the first dose of C-Mel was administered, was used as the baseline weight of tumor-bearing animals for weight loss determinations within each treatment group. […] One animal was lost at day 14 due to procedural error during treatment. Toxicity-related deaths were noted as follows: 2 animals found dead on day 27, 3 animals each found dead on days 30 and 34, for a total of 8/9 toxicity-related deaths on the study for the 18 hr CAB1.2/C-Mel treatment group. […] One animal was sacrificed on day 12 due to excessive necrosis at the tumor site. […]

With N[C@@H](Cc1ccc(N(CCCl)CCCl)cc1)C(=O)O [Melphalan] the “inhibition vs untreated control” value ([1]; day 34, melphalan 10 mg/kg intraperitoneally (MTD), once weekly 3 cycles) was 34%, the tumor regressions ([1]; melphalan 10 mg/kg treatment group) was “no tumor regressions occurred” and the weight loss ([2]; day 16) was 11%. For the same compound, the weight loss ([2]; day 24) was 12.5%, the “toxicity-related deaths on the study” value ([2]; melphalan alone 10 mg/kg) was 3/10 and the animal deaths ([2]; melphalan at maximum tolerated dose (MTD)) was 30%.
